Key:
[1] = Drug internalization in human HeLa cells at 1 uM by RP-HPLC-MS analysis; type: ADME, cell-based
[2] = system: HeLa; test: Inhibition of protein synthesis in human HeLa cells at 50 to 500 uM pre-incubated for 1 hr before L-[35S]-cysteine and L-[35S]-methionine addition and measured after 1 hr by Comassie staining based autoradiography; type: functional, cell-based
[3] = target: 14-3-3 protein zeta/delta (Homo sapiens) (UniProt P63104); test: Binding affinity to […] zeta/delta in human Hela cells lysates assessed as protein enrichment by measuring normalized heavy/light ratio at by nano-LC-ESIMS/MS analysis; type: cell-free
Sequence of 14-3-3 protein zeta/delta (Homo sapiens) (P63104 whole entry): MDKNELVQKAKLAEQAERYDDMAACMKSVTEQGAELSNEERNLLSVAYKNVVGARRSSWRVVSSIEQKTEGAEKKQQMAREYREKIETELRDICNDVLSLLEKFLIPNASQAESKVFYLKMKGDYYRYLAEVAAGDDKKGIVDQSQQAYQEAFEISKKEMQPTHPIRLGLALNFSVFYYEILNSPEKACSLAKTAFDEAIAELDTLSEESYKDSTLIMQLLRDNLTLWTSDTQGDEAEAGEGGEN

[4] = target: T1, 80S Ribosome (Homo sapiens) (UniProt P08865+P42677+P62753+P15880+P23396+P61247+P62701+P22090+P46782+P62081+P62241+P46781+P46783+P62280+P25398+P62277+P62263+P62841+P62244+P62249+P08708+P62269+P39019+P60866+P63220+P62266+P62847+P62851+P62854+P62979+P62857+P62273+P62861+P39023+P36578+P46777+Q02878+P18124+P62424+P62917+P32969+P27635+P62906+P62913+P30050+P26373+P40429+P50914+P61313+P18621+Q07020+Q02543+P84098+P46778+P35268+P62829+P62750+P83731+P61254+P61353+P46776+P46779+P47914+P62888+P62899+P62910+P49207+P42766+P18077+Q9Y3U8+P83881+P61927+P61513+P63173+P62891+P62945+P05388+P05386); test: Binding affinity to 40S ribosomal protein S7 in human Hela cells lysates assessed as protein enrichment by measuring normalized heavy/light ratio at by nano-LC-ESIMS/MS analysis; type: cell-free
[5] = target: T1, 80S Ribosome (Homo sapiens); test: Binding affinity to 40S ribosomal protein S10 in human Hela cells lysates assessed as protein enrichment by measuring normalized heavy/light ratio at by nano-LC-ESIMS/MS analysis; type: cell-free
[6] = target: T1, 80S Ribosome (Homo sapiens); test: Binding affinity to 40S ribosomal protein S14 in human Hela cells lysates assessed as protein enrichment by measuring normalized heavy/light ratio at by nano-LC-ESIMS/MS analysis; type: cell-free
[7] = target: T1, 80S Ribosome (Homo sapiens); test: Binding affinity to 40S ribosomal protein S18 in human Hela cells lysates assessed as protein enrichment by measuring normalized heavy/light ratio at by nano-LC-ESIMS/MS analysis; type: cell-free
[8] = target: T1, 80S Ribosome (Homo sapiens); test: Binding affinity to 40S ribosomal protein S26 in human Hela cells lysates assessed as protein enrichment by measuring normalized heavy/light ratio at by nano-LC-ESIMS/MS analysis; type: cell-free
[9] = target: Small ribosomal subunit protein eS6 (Homo sapiens) (UniProt P62753); test: Binding affinity to 40S ribosomal protein S6 in human Hela cells lysates assessed as protein enrichment by measuring normalized heavy/light ratio at by nano-LC-ESIMS/MS analysis; type: cell-free
[10] = target: 60 kDa heat shock protein, mitochondrial (Homo sapiens) (UniProt P10809); test: Binding affinity to 60 kDa heat shock protein in human Hela cells lysates assessed as protein enrichment by measuring normalized heavy/light ratio at by nano-LC-ESIMS/MS analysis; type: cell-free
Sequence of 60 kDa heat shock protein, mitochondrial (Homo sapiens) (P10809 whole entry): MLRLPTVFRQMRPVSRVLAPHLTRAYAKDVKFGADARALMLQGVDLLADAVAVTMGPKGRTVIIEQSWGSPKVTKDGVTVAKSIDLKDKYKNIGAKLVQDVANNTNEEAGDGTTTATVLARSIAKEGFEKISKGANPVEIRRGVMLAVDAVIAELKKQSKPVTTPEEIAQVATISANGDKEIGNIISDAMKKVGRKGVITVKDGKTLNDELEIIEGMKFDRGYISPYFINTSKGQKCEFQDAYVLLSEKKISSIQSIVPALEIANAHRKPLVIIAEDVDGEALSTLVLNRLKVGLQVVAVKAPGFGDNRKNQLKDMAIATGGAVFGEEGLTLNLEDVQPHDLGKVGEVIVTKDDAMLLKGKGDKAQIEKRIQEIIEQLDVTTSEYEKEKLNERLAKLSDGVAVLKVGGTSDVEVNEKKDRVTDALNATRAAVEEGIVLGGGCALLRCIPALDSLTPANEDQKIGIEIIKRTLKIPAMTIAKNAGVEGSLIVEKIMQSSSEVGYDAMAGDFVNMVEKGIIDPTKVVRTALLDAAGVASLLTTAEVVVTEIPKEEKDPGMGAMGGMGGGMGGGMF

[11] = target: T1, 80S Ribosome (Homo sapiens); test: Binding affinity to 60S ribosomal protein L10 in human Hela cells lysates assessed as protein enrichment by measuring normalized heavy/light ratio at by nano-LC-ESIMS/MS analysis; type: cell-free
[12] = target: T1, 80S Ribosome (Homo sapiens); test: Binding affinity to 60S ribosomal protein L23a in human Hela cells lysates assessed as protein enrichment by measuring normalized heavy/light ratio at by nano-LC-ESIMS/MS analysis; type: cell-free
[13] = target: T1, 80S Ribosome (Homo sapiens); test: Binding affinity to 60S ribosomal protein L35 in human Hela cells lysates assessed as protein enrichment by measuring normalized heavy/light ratio at by nano-LC-ESIMS/MS analysis; type: cell-free
[14] = target: T1, 80S Ribosome (Homo sapiens); test: Binding affinity to 60S ribosomal protein L38 in human Hela cells lysates assessed as protein enrichment by measuring normalized heavy/light ratio at by nano-LC-ESIMS/MS analysis; type: cell-free
[15] = target: T1, 80S Ribosome (Homo sapiens); test: Binding affinity to 60S ribosomal protein L9 in human Hela cells lysates assessed as protein enrichment by measuring normalized heavy/light ratio at by nano-LC-ESIMS/MS analysis; type: cell-free
[16] = target: Actin, cytoplasmic 1 (Homo sapiens) (UniProt P60709); test: Binding affinity to actin, Cytoplasmic1 in human Hela cells lysates assessed as protein enrichment by measuring normalized heavy/light ratio at by nano-LC-ESIMS/MS analysis; type: cell-free
[17] = target: Alkyldihydroxyacetonephosphate synthase, peroxisomal (Homo sapiens) (UniProt O00116); test: Binding affinity to alkyldihydroxyacetone phosphate synthase in human Hela cells lysates assessed as protein enrichment by measuring normalized heavy/light ratio at by nano-LC-ESIMS/MS analysis; type: cell-free
Sequence of Alkyldihydroxyacetonephosphate synthase, peroxisomal (Homo sapiens) (O00116 whole entry): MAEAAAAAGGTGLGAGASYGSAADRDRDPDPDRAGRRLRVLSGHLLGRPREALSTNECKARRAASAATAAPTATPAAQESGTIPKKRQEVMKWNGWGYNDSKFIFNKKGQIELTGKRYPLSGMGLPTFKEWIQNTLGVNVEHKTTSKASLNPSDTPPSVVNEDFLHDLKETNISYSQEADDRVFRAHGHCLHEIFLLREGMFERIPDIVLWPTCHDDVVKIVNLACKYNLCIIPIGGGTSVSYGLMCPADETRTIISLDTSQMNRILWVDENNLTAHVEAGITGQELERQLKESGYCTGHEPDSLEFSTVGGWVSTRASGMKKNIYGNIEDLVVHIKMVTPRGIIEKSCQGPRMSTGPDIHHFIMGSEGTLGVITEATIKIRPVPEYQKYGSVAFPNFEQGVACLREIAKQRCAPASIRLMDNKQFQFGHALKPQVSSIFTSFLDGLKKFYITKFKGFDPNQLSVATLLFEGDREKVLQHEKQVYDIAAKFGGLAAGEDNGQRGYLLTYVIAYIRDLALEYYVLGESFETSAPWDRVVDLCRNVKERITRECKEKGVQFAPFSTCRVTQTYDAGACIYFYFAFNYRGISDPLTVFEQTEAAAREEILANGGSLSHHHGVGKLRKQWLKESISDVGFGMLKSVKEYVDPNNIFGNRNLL

[18] = target: D-3-phosphoglycerate dehydrogenase (Homo sapiens) (UniProt O43175); test: Binding affinity to D3-phosphoglycerate dehydrogenase in human Hela cells lysates assessed as protein enrichment by measuring normalized heavy/light ratio at by nano-LC-ESIMS/MS analysis; type: cell-free
Sequence of D-3-phosphoglycerate dehydrogenase (Homo sapiens) (O43175 whole entry): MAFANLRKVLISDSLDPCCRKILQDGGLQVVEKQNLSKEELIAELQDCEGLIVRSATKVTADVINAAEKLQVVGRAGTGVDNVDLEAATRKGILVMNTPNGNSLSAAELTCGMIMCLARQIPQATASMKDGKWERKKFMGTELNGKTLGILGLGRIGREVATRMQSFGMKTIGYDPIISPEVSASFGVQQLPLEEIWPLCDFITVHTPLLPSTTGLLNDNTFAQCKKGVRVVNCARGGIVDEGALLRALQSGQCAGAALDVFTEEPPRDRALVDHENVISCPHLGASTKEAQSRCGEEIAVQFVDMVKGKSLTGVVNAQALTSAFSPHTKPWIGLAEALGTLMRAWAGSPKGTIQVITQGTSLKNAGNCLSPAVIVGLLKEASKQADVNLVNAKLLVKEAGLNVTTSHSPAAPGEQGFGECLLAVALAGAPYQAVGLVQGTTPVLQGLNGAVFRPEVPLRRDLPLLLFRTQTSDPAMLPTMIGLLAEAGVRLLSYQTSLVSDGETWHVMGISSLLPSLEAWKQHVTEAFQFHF

[19] = target: Elongation factor 2 (Homo sapiens) (UniProt P13639); test: Binding affinity to elongation factor 2 in human Hela cells lysates assessed as protein enrichment by measuring normalized heavy/light ratio at by nano-LC-ESIMS/MS analysis; type: cell-free
[20] = target: Eukaryotic initiation factor 4A-II (Homo sapiens) (UniProt Q14240); test: Binding affinity to eukaryotic initiation factor 4A-II in human Hela cells lysates assessed as protein enrichment by measuring normalized heavy/light ratio at by nano-LC-ESIMS/MS analysis; type: cell-free
Sequence of Eukaryotic initiation factor 4A-II (Homo sapiens) (Q14240 whole entry): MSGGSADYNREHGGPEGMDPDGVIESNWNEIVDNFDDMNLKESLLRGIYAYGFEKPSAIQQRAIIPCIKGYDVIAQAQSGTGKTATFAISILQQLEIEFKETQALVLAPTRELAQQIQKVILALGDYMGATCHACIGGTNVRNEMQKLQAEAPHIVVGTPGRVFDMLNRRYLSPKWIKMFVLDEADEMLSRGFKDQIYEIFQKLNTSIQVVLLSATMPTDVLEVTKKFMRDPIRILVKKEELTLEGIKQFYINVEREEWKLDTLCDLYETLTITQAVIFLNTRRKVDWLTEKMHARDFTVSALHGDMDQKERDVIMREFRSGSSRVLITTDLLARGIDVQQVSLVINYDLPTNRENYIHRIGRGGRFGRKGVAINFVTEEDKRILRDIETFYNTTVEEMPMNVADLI

[21] = target: Elongation factor 2 (Homo sapiens) (UniProt P13639); test: Binding affinity to eukaryotic translation initiation factor in human Hela cells lysates assessed as protein enrichment by measuring normalized heavy/light ratio at by nano-LC-ESIMS/MS analysis; type: cell-free
[22] = species on record: Homo sapiens; test: Binding affinity to histone H2A in human Hela cells lysates assessed as protein enrichment by measuring normalized heavy/light ratio at by nano-LC-ESIMS/MS analysis; type: cell-free
[23] = target: Pyruvate kinase PKM (Homo sapiens) (UniProt P14618); test: Binding affinity to pyruvate kinase isozymes M1/M2 in human Hela cells lysates assessed as protein enrichment by measuring normalized heavy/light ratio at by nano-LC-ESIMS/MS analysis; type: cell-free
Sequence of Pyruvate kinase PKM (Homo sapiens) (P14618 2-531 limits assumed): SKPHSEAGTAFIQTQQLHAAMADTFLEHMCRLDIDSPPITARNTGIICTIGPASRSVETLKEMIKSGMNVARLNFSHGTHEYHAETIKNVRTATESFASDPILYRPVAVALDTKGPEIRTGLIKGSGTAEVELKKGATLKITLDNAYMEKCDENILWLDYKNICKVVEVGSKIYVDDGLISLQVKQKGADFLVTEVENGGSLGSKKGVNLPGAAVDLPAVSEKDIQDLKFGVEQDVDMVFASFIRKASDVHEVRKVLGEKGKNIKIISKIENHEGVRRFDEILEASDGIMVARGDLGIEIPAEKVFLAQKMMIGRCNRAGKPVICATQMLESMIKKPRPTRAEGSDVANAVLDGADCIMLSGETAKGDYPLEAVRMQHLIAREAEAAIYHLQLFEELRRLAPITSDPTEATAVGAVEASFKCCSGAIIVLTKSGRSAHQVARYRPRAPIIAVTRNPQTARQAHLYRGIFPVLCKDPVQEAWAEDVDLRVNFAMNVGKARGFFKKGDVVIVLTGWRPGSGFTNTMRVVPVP

[24] = target: Ras-related protein Rab-7a (Homo sapiens) (UniProt P51149); test: Binding affinity to ras-related protein rab-7a in human Hela cells lysates assessed as protein enrichment by measuring normalized heavy/light ratio at by nano-LC-ESIMS/MS analysis; type: cell-free
Sequence of Ras-related protein Rab-7a (Homo sapiens) (P51149 whole entry): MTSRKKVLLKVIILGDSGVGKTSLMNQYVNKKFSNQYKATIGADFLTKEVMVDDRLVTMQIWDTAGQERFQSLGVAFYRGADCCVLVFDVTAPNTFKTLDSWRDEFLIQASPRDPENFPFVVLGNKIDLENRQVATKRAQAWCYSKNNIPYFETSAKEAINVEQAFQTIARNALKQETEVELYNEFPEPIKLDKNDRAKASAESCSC

[25] = target: Rho-related GTP-binding protein RhoQ (Homo sapiens) (UniProt P17081); test: Binding affinity to rho-related GTP-binding protein in human Hela cells lysates assessed as protein enrichment by measuring normalized heavy/light ratio at by nano-LC-ESIMS/MS analysis; type: cell-free
Sequence of Rho-related GTP-binding protein RhoQ (Homo sapiens) (P17081 whole entry): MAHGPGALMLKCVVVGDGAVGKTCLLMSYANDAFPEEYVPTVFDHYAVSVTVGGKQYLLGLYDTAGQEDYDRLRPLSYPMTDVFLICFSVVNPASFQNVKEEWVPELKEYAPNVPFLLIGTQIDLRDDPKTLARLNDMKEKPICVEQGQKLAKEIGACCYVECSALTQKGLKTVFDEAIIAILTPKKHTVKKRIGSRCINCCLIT

[26] = target: Stress-70 protein, mitochondrial (Homo sapiens) (UniProt P38646); test: Binding affinity to stress-70 protein in human Hela cells lysates assessed as protein enrichment by measuring normalized heavy/light ratio at by nano-LC-ESIMS/MS analysis; type: cell-free
Sequence of Stress-70 protein, mitochondrial (Homo sapiens) (P38646 whole entry): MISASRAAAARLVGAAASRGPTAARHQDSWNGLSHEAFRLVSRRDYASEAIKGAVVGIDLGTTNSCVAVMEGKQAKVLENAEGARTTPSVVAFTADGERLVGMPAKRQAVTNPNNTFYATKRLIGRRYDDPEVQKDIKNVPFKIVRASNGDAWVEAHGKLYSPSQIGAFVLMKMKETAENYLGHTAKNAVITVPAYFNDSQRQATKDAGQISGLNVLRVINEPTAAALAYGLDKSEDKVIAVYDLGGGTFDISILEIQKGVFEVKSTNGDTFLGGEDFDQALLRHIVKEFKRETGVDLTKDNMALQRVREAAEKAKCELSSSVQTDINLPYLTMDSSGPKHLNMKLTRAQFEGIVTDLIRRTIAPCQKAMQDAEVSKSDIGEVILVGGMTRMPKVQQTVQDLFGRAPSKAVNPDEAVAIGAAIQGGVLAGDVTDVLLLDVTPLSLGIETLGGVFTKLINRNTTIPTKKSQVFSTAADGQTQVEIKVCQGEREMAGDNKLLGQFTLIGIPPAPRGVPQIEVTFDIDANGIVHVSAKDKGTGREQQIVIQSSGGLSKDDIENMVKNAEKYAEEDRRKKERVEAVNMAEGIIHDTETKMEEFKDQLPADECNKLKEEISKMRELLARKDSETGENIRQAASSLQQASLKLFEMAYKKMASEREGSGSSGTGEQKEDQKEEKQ

- Drug uptake [1]: 4%
- Ratio [3]: 0.62
- Ratio [4]: 0.119
- Ratio [5]: 0.39
- Ratio [6]: 0.405
- Ratio [7]: 0.448
- Ratio [8]: 0.158
- Ratio [9]: 0.317
- Ratio [10]: 0.57
- Ratio [11]: 0.105
- Ratio [12]: 0.313
- Ratio [13]: 0.062
- Ratio [14]: 0.33
- Ratio [15]: 0.453
- Ratio [16]: 0.436
- Ratio [17]: 0.955
- Ratio [18]: 0.509
- Ratio [19]: 0.688
- Ratio [20]: 0.404
- Ratio [21]: 0.795
- Ratio [23]: 0.899
- Ratio [24]: 0.568
- Ratio [25]: 0.706
- Ratio [26]: 0.751
Compound: C/C=C(\C)C(=O)O[C@H]1[C@H](O)[C@]2(COC(C)=O)[C@@H](O)C[C@]3(C)C(=CC[C@@H]4[C@@]5(C)CC[C@H](O[C@@H]6O[C@H](C(=O)O)[C@@H](O)[C@H](O)[C@H]6O)[C@@](C)(CO)[C@@H]5CC[C@]43C)[C@@H]2CC1(C)C
- inhibition [2]: Dose-dependent effect
- Ratio [22]: 0.509

Source: ChEMBL document CHEMBL4270485, “Determination of Gymnemic Acid I as a Protein Biosynthesis Inhibitor Using Chemical Proteomics” (J Nat Prod, 2017)
